Experimental data taken from patent publication US5071965A, “Novel TC-99M complexes” (Mallinckrodt Medical, Inc., priority 1989, dated 1991).

Experiment: Biodistribution of Tc-99m complexes in guinea pigs (heart uptake, heart/blood)
Conditions: 5 minutes, Tc-99m complex
Protocol: The procedures used for determining biodistribution are as follows.
Guinea Pigs--The guinea pigs are anesthetized and the technetium complex is injected into the jugular vein after a cutdown. The animals are sacrificed after 5 minutes and the organs removed and counted as with the rats.
For guinea pigs, significant heart uptake is determined if the percentage of technetium in the heart is greater than 0.5% and the heart/blood ratio is greater than 1.

| SMILES | Guinea Pig Heart/Blood Ratio |
| --- | --- |
| CCCOCC(CN=Cc1ccccc1O)(CN=Cc1ccccc1O)CN=Cc1ccccc1O (stereo not drawn) [phenol, 2,2'-[[2-[[[(2-hydroxyphenyl)methylene]amino]methyl]-2-propoxymethyl-1,3-propanediyl]bis(nitrilomethylidyne)]bis-] | 18 |

Same assay, conditions: jugular vein injection, 5 minutes, Tc-99m complex

| SMILES | 5 Minute Guinea Pig % HT Uptake |
| --- | --- |
| COc1ccc(COCC(CN=Cc2c(O)cc(OC)c(OC)c2OC)(CN=Cc2c(O)cc(OC)c(OC)c2OC)CN=Cc2c(O)cc(OC)c(OC)c2OC)cc1 (stereo not drawn) [3,4,5-trimethoxyphenol, 2,2'-[[2-[[[(4,5,6-trimethoxy-2-hydroxyphenyl)methylene]amino]methyl]-2-(4-methoxyphenyl)methoxymethyl-1,3-propranediyl]bis(nitrilomethylidyne)]bis-] | 1.04% |
| COc1cc(O)c(C=NCC(CN=Cc2c(O)cc(OC)c(OC)c2OC)(CN=Cc2c(O)cc(OC)c(OC)c2OC)COCc2ccccc2)c(OC)c1OC (stereo not drawn) [3,4,5-trimethoxyphenol, 2,2'-[[2-[[[(4,5,6-trimethoxy-2-hydroxyphenyl)methylene]amino]methyl]-2-phenylmethoxymethyl-1,3-propanediyl]bis(nitrilomethylidyne)]bis-] | 0.60% |
| CCCOCC(CN=Cc1ccccc1O)(CN=Cc1ccccc1O)CN=Cc1ccccc1O (stereo not drawn) [phenol, 2,2'-[[2-[[[(2-hydroxyphenyl)methylene]amino]methyl]-2-propoxymethyl-1,3-propanediyl]bis(nitrilomethylidyne)]bis-] | 1.48% |
| COc1ccc(COCC(CN=Cc2ccccc2O)(CN=Cc2ccccc2O)CN=Cc2ccccc2O)cc1 (stereo not drawn) [phenol, 2,2'-[[2-[[[2-hydroxyphenyl)methylene]amino]methyl]-2-(4-methoxyphenyl)methoxymethyl-1,3-propanediyl]bis(nitrilomethylidyne)]bis-] | 1.08% |
| C=CCOCC(CN=Cc1ccccc1O)(CN=Cc1ccccc1O)CN=Cc1ccccc1O (stereo not drawn) [phenol, 2,2'-[[2-[[[(2-hydroxyphenyl)methylene]amino]methyl]-2-propenyloxymethyl-1,3-propanediyl]bis(nitrilomethylidyne)]bis-] | 1.09% |
| COC(C)(C)Cc1ccc(O)c(C=NCC(C)(CN=Cc2cc(CC(C)(C)OC)ccc2O)CN=Cc2cc(CC(C)(C)OC)ccc2O)c1 (stereo not drawn) [4-(2-methoxy-2-methyl-propyl)phenol, 2,2'-[[2-[[[(5-(2-methoxy-2-methyl-propyl)-2-hydroxyphenyl)methylene]amino]methyl]-2-methyl-1,3-propanediyl]bis(nitrilomethylidyne)]bis-] | 0.49% |
| CCCCCCCC(=O)OCC(CN=Cc1ccccc1O)(CN=Cc1ccccc1O)CN=Cc1ccccc1O (stereo not drawn) [phenol, 2,2'-[[2-[[[(2-hydroxypheny)methylene]amino]methyl]-2-octanoyloxymethyl-1,3-propanediyl]bis(nitrilomethylidyne)]bis-] | 0.88% |
| Oc1ccccc1C=NCC(CN=Cc1ccccc1O)(CN=Cc1ccccc1O)COCc1ccccc1 (stereo not drawn) [phenol, 2,2'-[[2-[[[(2-hydroxyphenyl)methylene]amino]methyl]-2-phenylmethoxymethyl-1,3-propanediyl]bis(nitrilomethylidyne)]bis-] | 1.60% |
| Oc1ccccc1C=NCC(CN=Cc1ccccc1O)CN=Cc1ccccc1O (stereo not drawn) [R5=H, R6=H, R7=H, R8=H, R3=H, R4=H, phenol, 2,2'-[[2-[[[ (2-hydroxyphenyl)methylene]amino]methyl]-1,3-propanediyl]bis(nitrilomethylidyne)]bis-] | 1.29% |

Further lines, results first:

| 5 Minute Guinea Pig % HT Uptake | SMILES |
| --- | --- |
| 0.98% | CCOc1ccc(C=NCC(C)(CN=Cc2ccc(OCC)cc2O)CN=Cc2ccc(OCC)cc2O)c(O)c1 (stereo not drawn) [3-Ethoxyphenol, 6,6'-[[2[[[(4-ethoxy-2-hydroxyphenyl)methylene]amino]methyl-2-methyl-1,3-propanediyl]bis(nitrilomethylidyne)]bis-] |
| 1.51% | Cc1ccc(C=NCC(C)(CN=Cc2ccc(C)cc2O)CN=Cc2ccc(C)cc2O)c(O)c1 (stereo not drawn) [R5=H, R6=CH3, R7=H, R8=H, R3=H, R4=CH3, 3-Methylphenol, 6,6'-[[2-[[[(4-methyl-2-hydroxyphenyl)methylene]amino]methyl]-2-methyl-1,3-propanediyl]bis(nitrilomethylidyne)]bis-] |
| 1.01% | COCCOCC(CN=Cc1ccccc1O)(CN=Cc1ccccc1O)CN=Cc1ccccc1O (stereo not drawn) [phenol, 2,2'-[[2-[[[(2-hydroxyphenyl)methylene]amino]methyl]-2-methoxyethoxymethyl-1,3-propanediyl]bis(nitrilomethylidyne)]bis-] |
| 1.22% | CCCCCOCC(CN=Cc1ccccc1O)(CN=Cc1ccccc1O)CN=Cc1ccccc1O (stereo not drawn) [Phenol, 2,2'-[[2-[[[(2-hydroxyphenyl)methylene]amino]methyl]-2-pentyloxymethyl-1,3-propandiyl]bis(nitrilomethylidyne)]bis-] |
| 1.07% | COc1c(C)cc(O)c(C=NCC(C)(CN=Cc2c(O)cc(C)c(OC)c2C)CN=Cc2c(O)cc(C)c(OC)c2C)c1C (stereo not drawn) [3,5-dimethyl-4-methoxyphenol, 2,2'-[[2-[[[(4,6-dimethyl-5-methoxy-2-hydroxyphenyl)methylene]amino]methyl]-2-methyl-1,3-propanediyl]bis(nitrilomethylidyne)]bis-] |
| 1.79% | CCCOCC(CN=Cc1ccc(C)cc1O)(CN=Cc1ccc(C)cc1O)CN=Cc1ccc(C)cc1O (stereo not drawn) [3-Methylphenol, 6,6'-[[2-[[[(4-methyl-2-hydroxyphenyl)methylene]amino]methyl]-2-propoxymethyl-1,3-propanediyl]bis(nitrilomethylidyne)]bis-] |
| 0.57% | CC(C)OCC(CN=Cc1ccccc1O)(CN=Cc1ccccc1O)CN=Cc1ccccc1O (stereo not drawn) [Phenol, 2,2'-[[2[[[(2-hydroxyphenyl)methylene]amino]methyl]-2-(1-methylethoxy)methyl-1,3-propanediyl]bis(nitrilomethylidyne)]bis-] |
| 0.50% | CCOc1cccc(C=NCC(C)(CN=Cc2cccc(OCC)c2O)CN=Cc2cccc(OCC)c2O)c1O (stereo not drawn) [2-ethoxyphenol, 6,6'-[[2-[[[(3-ethoxy-2-hydroxyphenyl)methylene]amino]methyl]-2-methyl-1,3-propanediyl]bis(nitrilomethylidyne)]bis-] |
| 1.55% | COc1cccc(O)c1C=NCC(C)(CN=Cc1c(O)cccc1OC)CN=Cc1c(O)cccc1OC (stereo not drawn) [R5=H, R6=H, R7=H, R8=OCH3, R3=H, R4=CH3, 3-Methoxyphenol, 2,2'-[[2-[[[(6-methoxy-2-hydroxyphenyl)methylene]amino]methyl]-2-methyl-1,3-propanediyl]bis(nitrilomethylidyne)]bis-] |
| 1.19% | CCCCCCOCC(CN=Cc1ccccc1O)(CN=Cc1ccccc1O)CN=Cc1ccccc1O (stereo not drawn) [phenol, 2,2,'-[[2-[[[(2-hydroxyphenyl)methylene]amino]methyl]-2-hexyloxymethyl-1,3-propanediyl]bis(nitrilomethylidyne)]bis-] |

Experiment: not given
Conditions: rat, in vivo; cited from earlier work

| SMILES | washout from the heart (biodistribution data in rats) |
| --- | --- |
| COc1ccc(O)c(C=NCC(C)(CN=Cc2cc(OC)ccc2O)CN=Cc2cc(OC)ccc2O)c1 (stereo not drawn) [1,1,1-tris (5-methoxysalicyl-aldiminomethyl) ethane] | washed out quickly from the heart |

Experiment: not given
Conditions: in vivo; cited from earlier work

| SMILES | washout from the heart (images of a dog's heart) |
| --- | --- |
| COc1ccc(O)c(C=NCC(C)(CN=Cc2cc(OC)ccc2O)CN=Cc2cc(OC)ccc2O)c1 (stereo not drawn) [1,1,1-tris (5-methoxysalicyl-aldiminomethyl) ethane] | washed out quickly from the heart |

Experiment: not given
Conditions: literature, Green et al. 1985; cited from earlier work

| SMILES | overall charge |
| --- | --- |
| COc1ccc(O)c(C=NCC(C)(CN=Cc2cc(OC)ccc2O)CN=Cc2cc(OC)ccc2O)c1 (stereo not drawn) [1,1,1-tris (5-methoxysalicyl-aldiminomethyl) ethane] | no overall charge |

Experiment: not given
Conditions: in vivo, 5 min

| 5 Minute Guinea Pig % HT Uptake | SMILES |
| --- | --- |
| 0.66% | CC(=NCC(C)(CN=C(C)c1cc(F)ccc1O)CN=C(C)c1cc(F)ccc1O)c1cc(F)ccc1O (stereo not drawn) [R5=H, R6=H, R7=F, R8=H, R3=CH3, R4=CH3, 1',1',1'-tris(5-fluoro-2-hydroxyacetophenoiminemethyl)ethane] |
